Results on 22 molecules are retold here after US12391679B2, “Benzamide-substituted bicyclic imidazo- and pyrazolo-fused -pyridine, -pyrimide, and -pyridazine compounds for treatment of inflammatory diseases” (ONCO3R Therapeutics BV, priority 2019, dated 2025).

Common to all, as to type: biochemical
One assay addresses T1, SIK1 (Homo sapiens, UniProt P57059).
T1 construct: purchased Carna Biosciences 02-131
As to the kind of experiment: ADP-Glo kinase assay, SIK1. The procedure:
(§1) The ADP-Glo™ kinase assay is a luminescent technology assay which measures the ADP formed from a kinase reaction. […] In a second step the kinase reactions are terminated and all the remaining ATP is depleted. In a final step the ADP is converted into ATP and this newly synthesized ATP is measured by using a luciferase/luciferin reaction. The generated light is measured using an Envision plate reader, wherein the luminescent signal obtained positively correlates with the kinase activity.
(§2) 1% DMSO and 10 μM staurosporine final concentrations are used as negative and positive controls.
(§3) 2 μL enzyme-substrate mixture is added to the assay plates.
(§4) The reaction is started by adding 2 μL diluted ATP on the assay plates. Plates are centrifuged for a few seconds at 1000 rpm and gently shaken for […] followed by an incubation at RT for 120 min.
(§5) The reactions are stopped and the unconsumed ATP is depleted by adding 5 μL ADP-Glo Reagent (Promega, Cat #V9120) to the reaction. The plates are centrifuged for a few seconds at 1000 rpm and incubated at RT for 40 min (ATP depletion).
(§6) The ADP is converted to ATP and luciferase and luciferin is introduced to detect ATP by adding 10 μL Kinase Detection Reagent (Promega, Cat #V913B+V914r) to the reaction. The plates are centrifuged for a few seconds at 1000 rpm and incubated at RT for 30 min (ADP detection).
(§7) Luminescence is measured on an Envision plate reader (PerkinElmer Inc.).
Background: ADP-Glo turns the ADP formed in a reaction into a luminescent signal.

The target of the next assay is T2, SIK2 (Homo sapiens, UniProt Q9H0K1).
T2 construct: purchased ThermoFisher Scientific PV4792
T2 sequence (Q9H0K1 whole entry): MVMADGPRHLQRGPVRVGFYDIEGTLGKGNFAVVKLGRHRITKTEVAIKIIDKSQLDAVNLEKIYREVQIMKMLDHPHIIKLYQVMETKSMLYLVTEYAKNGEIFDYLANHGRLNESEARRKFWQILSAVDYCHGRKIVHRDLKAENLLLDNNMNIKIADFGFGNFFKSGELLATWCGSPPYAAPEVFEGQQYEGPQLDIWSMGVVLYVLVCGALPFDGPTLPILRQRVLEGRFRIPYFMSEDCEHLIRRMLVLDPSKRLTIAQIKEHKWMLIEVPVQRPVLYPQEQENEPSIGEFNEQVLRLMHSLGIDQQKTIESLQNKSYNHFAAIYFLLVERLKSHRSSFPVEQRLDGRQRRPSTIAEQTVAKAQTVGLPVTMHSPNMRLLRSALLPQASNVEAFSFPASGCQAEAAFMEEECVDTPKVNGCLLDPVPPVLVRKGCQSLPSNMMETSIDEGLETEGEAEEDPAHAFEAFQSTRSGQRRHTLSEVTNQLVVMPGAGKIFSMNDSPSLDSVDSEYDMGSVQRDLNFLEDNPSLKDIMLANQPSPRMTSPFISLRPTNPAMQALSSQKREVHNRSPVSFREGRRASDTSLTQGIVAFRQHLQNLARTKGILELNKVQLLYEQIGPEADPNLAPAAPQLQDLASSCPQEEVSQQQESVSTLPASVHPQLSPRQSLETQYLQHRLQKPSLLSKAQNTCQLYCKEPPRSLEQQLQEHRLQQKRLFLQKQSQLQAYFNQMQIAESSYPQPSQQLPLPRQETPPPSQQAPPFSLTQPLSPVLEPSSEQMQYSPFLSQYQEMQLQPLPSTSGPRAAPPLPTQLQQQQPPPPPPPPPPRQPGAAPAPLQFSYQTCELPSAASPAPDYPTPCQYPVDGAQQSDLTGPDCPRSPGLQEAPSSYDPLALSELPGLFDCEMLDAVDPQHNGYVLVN
Kind of assay: ADP-Glo kinase assay, SIK2. The procedure: as §1, §2, §3, §4, §5, §6, §7

Another assay concerns the target T3, SIK3 (Homo sapiens, UniProt Q9Y2K2).
T3 construct: purchased SignalChem S12-11G-100
Kind of assay: ADP-Glo kinase assay, SIK3. As to the method:
as §1, §2, §3, §4, §5, §6, §7

By IC50 is commonly meant the point on the concentration scale where inhibition reaches its midpoint. A lower IC50 goes with higher potency.

T3 sequence (Q9Y2K2 59-365 limits assumed): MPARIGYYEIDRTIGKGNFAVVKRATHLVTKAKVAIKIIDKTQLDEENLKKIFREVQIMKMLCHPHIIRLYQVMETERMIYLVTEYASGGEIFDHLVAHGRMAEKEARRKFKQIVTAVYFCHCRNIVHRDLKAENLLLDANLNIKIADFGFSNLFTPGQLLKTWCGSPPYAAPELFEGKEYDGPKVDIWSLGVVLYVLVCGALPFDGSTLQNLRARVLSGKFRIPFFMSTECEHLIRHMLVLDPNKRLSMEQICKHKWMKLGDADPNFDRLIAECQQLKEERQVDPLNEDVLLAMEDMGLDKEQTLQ
T1 sequence (P57059 whole entry): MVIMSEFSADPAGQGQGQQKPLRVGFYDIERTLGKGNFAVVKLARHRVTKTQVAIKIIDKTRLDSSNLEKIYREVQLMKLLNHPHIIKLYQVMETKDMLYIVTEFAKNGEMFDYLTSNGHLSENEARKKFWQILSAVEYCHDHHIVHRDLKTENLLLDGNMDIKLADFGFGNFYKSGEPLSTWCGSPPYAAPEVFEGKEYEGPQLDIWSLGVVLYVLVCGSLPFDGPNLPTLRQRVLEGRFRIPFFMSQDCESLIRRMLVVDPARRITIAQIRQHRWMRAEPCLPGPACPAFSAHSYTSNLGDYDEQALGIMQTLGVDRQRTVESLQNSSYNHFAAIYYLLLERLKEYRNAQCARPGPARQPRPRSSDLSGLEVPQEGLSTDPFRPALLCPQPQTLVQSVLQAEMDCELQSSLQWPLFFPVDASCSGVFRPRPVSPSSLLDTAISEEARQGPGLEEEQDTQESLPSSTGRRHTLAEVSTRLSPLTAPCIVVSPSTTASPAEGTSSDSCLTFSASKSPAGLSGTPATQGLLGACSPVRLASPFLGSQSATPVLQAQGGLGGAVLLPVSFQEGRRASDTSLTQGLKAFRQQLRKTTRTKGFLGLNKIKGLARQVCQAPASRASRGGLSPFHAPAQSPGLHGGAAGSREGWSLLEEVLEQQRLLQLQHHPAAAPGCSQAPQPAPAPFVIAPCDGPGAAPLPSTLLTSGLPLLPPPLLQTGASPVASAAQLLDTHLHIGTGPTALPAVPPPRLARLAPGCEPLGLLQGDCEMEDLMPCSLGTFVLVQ

As to `COc1cc(-c2cnc3cc(C4CCOCC4)ccn23)cc(OC(F)F)c1C(=O)NC1CC1` [Cpd 108, N-cyclopropyl-2-(difluoromethoxy)-6-methoxy-4-(7-tetrahydropyran-4-ylimidazo[1,2-a]pyridin-3-yl)benzamide], the values for the IC50 at SIK1, at SIK2 and against SIK3 were 100 to 500 nM, 10 to 100 nM and 0.01 to 10 nM, respectively.
`COc1cc(-c2cnc3cc(C4CCCN4C(C)=O)ccn23)cc(OC(F)F)c1C(=O)NC1CC1` (stereo not drawn) [Cpd 198, 4-[7-(1-acetylpyrrolidin-2-yl)imidazo[1,2-a]pyridin-3-yl]-N-cyclopropyl-2-(difluoromethoxy)-6-methoxy-benzamide]: the IC50 was > 500 nM at SIK1, > 500 nM against SIK2 and 10 to 100 nM against SIK3.
For the molecule `COc1cc(-c2cnc3cc(C(C)(C)C#N)ccn23)cc(OC(F)F)c1C(=O)NC(C)C1CC1` (stereo not drawn) [Cpd 101, 4-[7-(1-cyano-1-methyl-ethyl)imidazo[1,2-a]pyridin-3-yl]-N-(1-cyclopropylethyl)-2-(difluoromethoxy)-6-methoxy-benzamide], the IC50 is > 500 nM against SIK1, > 500 nM against SIK2 and 100 to 500 nM against SIK3.
For the molecule `COc1cc(-c2cnc3cc(C4(Cl)COC4)ccn23)cc(OC(F)F)c1C(=O)NC1CC1` [Cpd 217, 4-[7-(3-chlorooxetan-3-yl)imidazo[1,2-a]pyridin-3-yl]-N-cyclopropyl-2-(difluoromethoxy)-6-methoxy-benzamide], the values for the IC50 against SIK1, against SIK2 and against SIK3 were > 500 nM, 100 to 500 nM and 10 to 100 nM, respectively.
Consider `C#CC1(O)CN(C(=O)c2c(OC)cc(-c3cnc4cc(C(C)(C)C#N)ccn34)cc2OC(F)F)C1` [Cpd 89, 2-[3-[3-(difluoromethoxy)-4-(3-ethynyl-3-hydroxy-azetidine-1-carbonyl)-5-methoxy-phenyl]imidazo[1,2-a]pyridin-7-yl]-2-methyl-propanenitrile], for which the values for the IC50 against SIK1, on SIK2 and against SIK3 were > 500 nM, > 500 nM and 10 to 100 nM, respectively.
Turning to `COc1cc(-c2cnc3cc(C4CCN4)ccn23)cc(OC(F)F)c1C(=O)NC1CC1` (stereo not drawn) [Cpd 203, 4-[7-(azetidin-2-yl)imidazo[1,2-a]pyridin-3-yl]-N-cyclopropyl-2-(difluoromethoxy)-6-methoxy-benzamide], the IC50 against SIK1 is > 500 nM; at SIK2, 100 to 500 nM; on SIK3, 10 to 100 nM.
Take `COc1cc(-c2cnc3cc(C(C)(C)C#N)ccn23)cc(OC(F)F)c1C(=O)N1CCC1CO` (stereo not drawn) [Cpd 105, 2-[3-[3-(difluoromethoxy)-4-[2-(hydroxymethyl)azetidine-1-carbonyl]-5-methoxy-phenyl]imidazo[1,2-a]pyridin-7-yl]-2-methyl-propanenitrile]: the IC50 is > 500 nM against SIK1, > 500 nM against SIK2 and 100 to 500 nM on SIK3.
For `COc1cc(-c2cnn3cc(C4(NCC(F)F)CCC4)ccc23)cc(OC(F)F)c1C(=O)N[C@@H]1C[C@@H]1F` [Cpd 271, 4-[6-[1-(2,2-difluoroethylamino)cyclobutyl]pyrazolo[1,5-a]pyridin-3-yl]-2-(difluoromethoxy)-N-[(1R,2S)-2-fluorocyclopropyl]-6-methoxy-benzamide], the IC50 is > 500 nM at SIK1, > 500 nM on SIK2 and 10 to 100 nM at SIK3.
For `CCC(CC)(OC)c1ccn2c(-c3cc(OC)c(C(=O)NC4CC4)c(OC(F)F)c3)cnc2c1` [Cpd 126, N-cyclopropyl-2-(difluoromethoxy)-4-[7-(1-ethyl-1-methoxy-propyl)imidazo[1,2-a]pyridin-3-yl]-6-methoxy-benzamide], the half-maximal inhibitory concentration (IC50) at SIK1 was > 500 nM; at SIK2, > 500 nM; at SIK3, 10 to 100 nM.
As to `CCC1(NC(=O)c2c(OC)cc(-c3cnc4cc(C(C)(C)C#N)ccn34)cc2OC(F)F)CC1` [Cpd 83, 4-[7-(1-cyano-1-methyl-ethyl)imidazo[1,2-a]pyridin-3-yl]-2-(difluoromethoxy)-N-(1-ethylcyclopropyl)-6-methoxy-benzamide], the IC50 on SIK1, against SIK2 and against SIK3 was > 500 nM in each case.
Turning to `COc1cc(-c2cnc3cc(C(C)(C)C#N)ccn23)cc2c1C(=O)NC2` [Cpd 111, 2-[3-(7-methoxy-1-oxo-isoindolin-5-yl)imidazo[1,2-a]pyridin-7-yl]-2-methyl-propanenitrile], the values for the IC50 on SIK1, against SIK2 and at SIK3 were > 500 nM, > 500 nM and 10 to 100 nM, respectively.
For the molecule `COc1cc(-c2cnc3cc(C4(N5CCOCC5)COC4)ccn23)cc(OC(F)F)c1C(=O)NC1CC1` [Cpd 222, N-cyclopropyl-2-(difluoromethoxy)-6-methoxy-4-[7-(3-morpholinooxetan-3-yl)imidazo[1,2-a]pyridin-3-yl]benzamide], the IC50 against SIK1 is > 500 nM; against SIK2, > 500 nM; against SIK3, 100 to 500 nM.
Consider `COc1cc(-c2cnc3cc(C4(C)CN(C)CCO4)ccn23)cc(OC(F)F)c1C(=O)NC1CC1` (stereo not drawn) [Cpd 210, N-cyclopropyl-2-(difluoromethoxy)-4-[7-(2,4-dimethylmorpholin-2-yl)imidazo[1,2-a]pyridin-3-yl]-6-methoxy-benzamide], for which the results for the IC50 against SIK1, on SIK2 and against SIK3 were > 500 nM, > 500 nM and 10 to 100 nM, respectively.
Turning to `COc1cc(-c2cnc3cc(C(C)(C)C#N)ccn23)cc(OC(F)F)c1C(=O)N1CC(N)C1` [Cpd 103, 2-[3-[4-(3-aminoazetidine-1-carbonyl)-3-(difluoromethoxy)-5-methoxy-phenyl]imidazo[1,2-a]pyridin-7-yl]-2-methyl-propanenitrile], the IC50 on SIK1 is > 500 nM; against SIK2, > 500 nM; against SIK3, 10 to 100 nM.
With `C=CCC(C#N)(CC=C)c1ccn2c(-c3cc(OC)c(C(=O)NC4CC4)c(OC(F)F)c3)cnc2c1` [Cpd 36, 4-[7-(1-allyl-1-cyano-but-3-enyl)imidazo[1,2-a]pyridin-3-yl]-N-cyclopropyl-2-(difluoromethoxy)-6-methoxy-benzamide], the IC50 was > 500 nM on SIK1, > 500 nM at SIK2 and 10 to 100 nM against SIK3.
`COc1cc(-c2cnc3cc(C(C)N4CC5(COC5)C4)ccn23)cc(OC(F)F)c1C(=O)NC1CC1` (stereo not drawn) [Cpd 152, N-cyclopropyl-2-(difluoromethoxy)-6-methoxy-4-[7-[1-(2-oxa-6-azaspiro[3.3]heptan-6-yl)ethyl]imidazo[1,2-a]pyridin-3-yl]benzamide]: the IC50 is > 500 nM on SIK1, > 500 nM on SIK2 and 10 to 100 nM on SIK3.
Turning to `COc1cc(-c2cnc3cc(C(O)C4CCC4)ccn23)cc(OC(F)F)c1C(=O)NC1CC1` (stereo not drawn) [Cpd 199, 4-[7-[cyclobutyl(hydroxy)methyl]imidazo[1,2-a]pyridin-3-yl]-N-cyclopropyl-2-(difluoromethoxy)-6-methoxy-benzamide], the IC50 against SIK1 was > 500 nM; on SIK2 it was > 500 nM; on SIK3 it was 10 to 100 nM.
Regarding `COc1cc(-c2cnc3cc(C(C)O)ccn23)cc(OC)c1C(=O)NCC(F)(F)F` (stereo not drawn) [Cpd 54, 4-[7-(1-hydroxyethyl)imidazo[1,2-a]pyridin-3-yl]-2,6-dimethoxy-N-(2,2,2-trifluoroethyl)benzamide], the IC50 was > 500 nM against SIK1, > 500 nM against SIK2 and 10 to 100 nM on SIK3.
As to `COc1cc(-c2cnc3cc(C4(CN5CCOCC5)CC4)ccn23)cc(OC(F)F)c1C(=O)NC1CC1` [Cpd 145, N-cyclopropyl-2-(difluoromethoxy)-6-methoxy-4-[7-[1-(morpholinomethyl)cyclopropyl]imidazo[1,2-a]pyridin-3-yl]benzamide], the IC50 against SIK1 was > 500 nM; on SIK2 it was > 500 nM; against SIK3, 100 to 500 nM.
As for `COc1cc(-c2cnc3cc(C4(C)COCCO4)ccn23)cc(OC(F)F)c1C(=O)NC1CC1` (stereo not drawn) [Cpd 220, N-cyclopropyl-2-(difluoromethoxy)-6-methoxy-4-[7-(2-methyl-1,4-dioxan-2-yl)imidazo[1,2-a]pyridin-3-yl]benzamide], the IC50 on SIK1 is > 500 nM; at SIK2 it was > 500 nM; against SIK3, 10 to 100 nM.
As to `COc1cc(-c2cnc3cc(C(C)(C)C#N)ccn23)cc(OC(F)F)c1C(=O)N1CC(OC)C1` [Cpd 98, 2-[3-[3-(difluoromethoxy)-5-methoxy-4-(3-methoxyazetidine-1-carbonyl)phenyl]imidazo[1,2-a]pyridin-7-yl]-2-methyl-propanenitrile], the IC50 is > 500 nM against SIK1, > 500 nM against SIK2 and 10 to 100 nM at SIK3.
As for `COC(=O)C(F)(F)c1ccn2c(-c3cc(OC)c(C(=O)NC4CC4)c(OC(F)F)c3)cnc2c1` [Cpd 131, methyl 2-[3-[4-(cyclopropylcarbamoyl)-3-(difluoromethoxy)-5-methoxy-phenyl]imidazo[1,2-a]pyridin-7-yl]-2,2-difluoro-acetate], the values for the IC50 at SIK1, at SIK2 and against SIK3 were > 500 nM, > 500 nM and 0.01 to 10 nM, respectively.
